Results as given in patent publication US9815791B2, “Alkylpyrazolyl guanidine F1F0-ATPase inhibitors and therapeutic uses thereof” (Lycera Corporation, priority 2013, dated 2017).

How the values were obtained:
Ramos cells = assay: Cytotoxicity in Ramos cells; assay type: cell-based; settings: Homo sapiens, read-out: Ramos Cell EC50
Description: Exemplary compounds described in above Examples were tested for activity against F1F0-ATPase by measuring the ability of the compounds to inhibit ATP synthesis. In addition, the compounds were assessed for cytotoxicity in Ramos cells. Inhibition of F1F0-ATPase activity in synthesizing ATP and cytotoxicity in Ramos cells were measured according to the procedures described in K. M. Johnson et al. Chemistry & Biology 2005, 12, 485-496.

[1] = Blood plasma levels after oral administration to mice; assay type: in vivo; settings: mouse, 10 mg/kg, 5 mL/Kg of 2 mg/mL lipid emulsion
Description: (§1) Exemplary compounds were administered orally to animals (i.e., mice or rats), and then blood samples were taken from the animal at set time points and analyzed for the amount of test compound in the blood sample. Experimental procedures and results are described below.
(§2) A lipid emulsion containing the test compound was prepared by first dissolving the test compound in 1:4 Labrafil M1944:Solutol, then adding 0.5% carboxymethylcellulose in water with vigorous stirring to achieve a final ratio of 5:20:75 Labrafil:Solutol:0.5% aqueous CMC. The concentration of test compound in the lipid emulsion was 2 mg/mL.
(§3) Animals (mice or rats) were dosed by oral gavage using 5 mL/Kg of dosing solution. Animals were serially bled from the dorsal metatarsal vein (mice) or jugular vein (rats) at 30 minutes, 1 h, 2 h, 4 h, 8 h and 24 h post-dose. Test compounds 1 and B-1 were administered to a mice. Test compounds A-1 and B-2 were administered to rats.
(§4) The desired serial concentrations of working solutions were achieved by diluting a stock solution of analyte with 60% acetonitrile in water solution. A 5 μL aliquot of working solutions at 10, 20, 50, 100, 500, 1000, 5000, and 10000 ng/mL were added to 50 μL of blank plasma to achieve calibration standards of 1-1000 ng/mL (1, 2, 5, 10, 50, 100, 500, 1000 ng/mL) in a total volume of 55 μL.
(§5) Four quality control samples at 3 ng/mL (low 1), 5 ng/mL (low 2), 50 ng/mL (medium), and 800 ng/mL (high) were prepared independently of those used for the calibration curves. These QC samples were prepared on the day of analysis in the same way as calibration standards.
(§6) 55 μL standards, 55 μL QC samples, and 55 μL unknown samples were added to 200 μL of acetonitrile for precipitating protein respectively. Then, the samples were vortexed for 30 seconds at 4 degree Celsius. After centrifugation at 4 degree Celsius (i.e., 15000 rpm for 5 min) a 20 μL aliquot of the supernatant was analyzed by LC/MS. Unknowns were compared to standards to obtain test compound concentrations for each sample.

[2] = Blood plasma levels after oral administration to rats; assay type: in vivo; settings: rat, 10 mg/kg, 5 mL/Kg of 2 mg/mL lipid emulsion; for AUC(0-t): heading: AUC0-24, oral gavage; for Cmax: oral gavage
Description: as §1, §2, §3, §4, §5, §6

Row | SMILES | EC50 (Ramos cells) | other results
1 | Cc1c(N/C(=N\C(=O)c2ccc(F)c(F)c2)Nc2cc(F)cc(Cl)c2)n[nH]c1C(F)(F)F [Compound 1, N-(((3-Chloro-5-fluorophenyl)amino)((4-methyl-5-(trifluoromethyl)-1H-pyrazol-3-yl)amino)methylene)-3,4-difluorobenzamide] | < 10 µM | Cmax ([1]; oral gavage): 1590 ng/mL; AUC(0-t) ([1]; oral gavage, read-out: AUC0-24): 8760 ng·h/mL
2 | Cc1c(N/C(=N\C(=O)c2cccc(Cl)c2)Nc2cc(F)cc(Cl)c2)n[nH]c1C(F)(F)F [Compound A-1] | < 10 µM | AUC(0-t) [2]: 10500 ng·h/mL; Cmax [2]: 1440 ng/mL
3 | COc1ccc(C(=O)N=C(Nc2cc(F)cc(Cl)c2)Nc2n[nH]c(C(F)(F)F)c2C)cc1 [Compound A-2] | < 10 µM | 
4 | Cc1c(NC(=NC(=O)c2cccc(Cl)c2)Nc2cccc(Cl)c2)n[nH]c1C(F)(F)F [Compound A-7] | < 10 µM | 
5 | Cc1c(NC(=NC(=O)c2ccc(Cl)cc2Cl)Nc2cccc(C(F)(F)F)c2)n[nH]c1C(F)(F)F [Compound A-8] | < 10 µM | 
6 | Cc1c(NC(=NC(=O)c2ccc(Cl)cc2Cl)Nc2cccc(Cl)c2)n[nH]c1C(F)(F)F [Compound A-9] | < 10 µM | 
7 | COc1ccc(C(=O)N=C(Nc2cccc(Cl)c2)Nc2n[nH]c(C(F)(F)F)c2C)cc1 [Compound A-10] | < 10 µM | 
8 | Cc1c(C(F)(F)F)n[nH]c1NC(=NC(=O)c1ccc(Cl)cc1Cl)Nc1cc(F)cc(Cl)c1 [Compound A-11] | < 10 µM | 
9 | CCn1nc(C(F)(F)F)c(C)c1N/C(=N\C(=O)c1ccc(Cl)cc1Cl)Nc1cc(F)cc(Cl)c1 [Compound A-12] | < 10 µM | 
10 | CCn1nc(C(F)(F)F)c(C)c1N/C(=N\C(=O)c1ccc(Cl)cc1Cl)Nc1cccc(C(F)(F)F)c1 [Compound A-13] | < 10 µM | 
11 | CCn1nc(C(F)(F)F)c(C)c1N/C(=N\C(=O)c1ccc(OC)cc1)Nc1cc(F)cc(Cl)c1 [Compound A-14] | < 10 µM | 
12 | CCn1nc(C(F)(F)F)c(C)c1N/C(=N\C(=O)c1ccc(OC)cc1)Nc1cccc(C(F)(F)F)c1 [Compound A-15] | < 10 µM | 
13 | CCn1nc(C(F)(F)F)c(C)c1N/C(=N\C(=O)c1ccc(OC)cc1)Nc1cccc(Cl)c1 [Compound A-16] | < 10 µM | 
14 | CCn1nc(C(F)(F)F)c(C)c1N/C(=N\C(=O)c1cccc(Cl)c1)Nc1cc(F)cc(Cl)c1 [Compound A-17] | < 10 µM | 
15 | CCn1nc(C(F)(F)F)c(C)c1N/C(=N\C(=O)c1cccc(Cl)c1)Nc1cccc(C(F)(F)F)c1 [Compound A-18] | < 10 µM | 
16 | CCn1nc(C(F)(F)F)c(C)c1N/C(=N\C(=O)c1cccc(Cl)c1)Nc1cccc(Cl)c1 [Compound A-19] | < 10 µM | 
17 | CCn1nc(C(F)(F)F)c(C)c1N/C(=N\C(=O)c1ccc(F)c(F)c1)Nc1cc(F)cc(Cl)c1 [Compound A-20] | < 10 µM | 
18 | CCn1nc(C(F)(F)F)c(C)c1N/C(=N\C(=O)c1ccc(F)c(F)c1)Nc1cccc(C(F)(F)F)c1 [Compound A-21] | < 10 µM | 
19 | CCn1nc(C(F)(F)F)c(C)c1N/C(=N\C(=O)c1ccc(F)c(F)c1)Nc1cccc(Cl)c1 [Compound A-22] | < 10 µM | 
20 | CCn1nc(C(F)(F)F)c(C)c1N/C(=N\C(=O)c1ccc(Cl)cc1Cl)Nc1cccc(Cl)c1 [Compound A-23] | < 10 µM | 

Row | SMILES | EC50 (Ramos cells) | other results
21 | CCn1nc(C(F)(F)F)c(C)c1N/C(=N\C(=O)c1ccc(Cl)cc1)Nc1cc(F)cc(Cl)c1 [Compound A-24] | < 10 µM | 
22 | CCn1nc(C(F)(F)F)c(C)c1N/C(=N\C(=O)c1ccc(Cl)cc1)Nc1cccc(C(F)(F)F)c1 [Compound A-25] | < 10 µM | 
23 | CCn1nc(C(F)(F)F)c(C)c1N/C(=N\C(=O)c1ccc(Cl)cc1)Nc1cccc(Cl)c1 [Compound A-26] | < 10 µM | 
24 | CCn1nc(C(F)(F)F)c(C)c1N/C(=N\C(=O)c1ccc(Cl)c(F)c1)Nc1cc(F)cc(Cl)c1 [Compound A-27] | < 10 µM | 
25 | CCn1nc(C(F)(F)F)c(C)c1N/C(=N\C(=O)c1ccc(Cl)c(F)c1)Nc1cccc(C(F)(F)F)c1 [Compound A-28] | < 10 µM | 
26 | CCn1nc(C(F)(F)F)c(C)c1N/C(=N\C(=O)c1ccc(Cl)c(F)c1)Nc1cccc(Cl)c1 [Compound A-29] | < 10 µM | 
27 | Cc1c(C(F)(F)F)n[nH]c1NC(=NC(=O)c1ccc(F)c(F)c1)Nc1ccc(Cl)cc1Cl [Compound A-30] | < 10 µM | 
28 | Cc1ccc(N/C(=N/C(=O)c2ccc(F)c(F)c2)Nc2[nH]nc(C(F)(F)F)c2C)c(Cl)c1 [Compound A-31] | < 10 µM | 
29 | Cc1c(NC(=NC(=O)c2ccc(Cl)cc2Cl)Nc2ccc(Cl)cc2Cl)n[nH]c1C(F)(F)F [Compound A-32] | < 10 µM | 
30 | Cc1ccc(NC(=NC(=O)c2ccc(Cl)cc2Cl)Nc2n[nH]c(C(F)(F)F)c2C)c(Cl)c1 [Compound A-33] | < 10 µM | 
31 | Cc1ccc(NC(=NC(=O)c2cccc(Cl)c2)Nc2n[nH]c(C(F)(F)F)c2C)c(Cl)c1 [Compound A-35] | < 10 µM | 
32 | Cc1c(NC(=NC(=O)c2ccc(Cl)cc2)Nc2cc(F)cc(Cl)c2)n[nH]c1C(F)(F)F [Compound A-36] | < 10 µM | 
33 | Cc1c(NC(=NC(=O)c2ccc(Cl)cc2)Nc2cccc(C(F)(F)F)c2)n[nH]c1C(F)(F)F [Compound A-37] | < 10 µM | 
34 | Cc1c(NC(=NC(=O)c2ccc(Cl)cc2)Nc2cccc(Cl)c2)n[nH]c1C(F)(F)F [Compound A-38] | < 10 µM | 
35 | Cc1c(NC(=NC(=O)c2ccc(Cl)c(F)c2)Nc2cc(F)cc(Cl)c2)n[nH]c1C(F)(F)F [Compound A-39] | < 10 µM | 
36 | Cc1c(NC(=NC(=O)c2ccc(Cl)c(F)c2)Nc2cccc(Cl)c2)n[nH]c1C(F)(F)F [Compound A-41] | < 10 µM | 
37 | Cc1c(NC(=NC(=O)c2ccc(C(F)(F)F)cc2)Nc2cccc(Cl)c2)n[nH]c1C(F)(F)F [Compound A-42] | < 10 µM | 
38 | O=C(/N=C(/Nc1cc(F)cc(Cl)c1)Nc1cc(C(F)(F)F)[nH]n1)c1ccc(F)c(F)c1 [Compound B-1, reference compound] |  | AUC(0-t) ([1]; heading: AUC0-24, oral gavage): 4530 ng·h/mL; Cmax ([1]; oral gavage): 609 ng/mL
39 | O=C(/N=C(/Nc1cc(F)cc(Cl)c1)Nc1cc(C(F)(F)F)[nH]n1)c1cccc(Cl)c1 [Compound B-2, reference compound] |  | AUC(0-t) [2]: 5480 ng·h/mL; Cmax [2]: 541 ng/mL
